From the supplement of paper PMC10307832

How the values were obtained:
Assay in all cases: relative viability (nuclei count vs DMSO), 5 days (fraction); higher = more cells survive
Decitabine + Crizotinib = compound: Nc1ncn([C@H]2C[C@H](O)[C@@H](CO)O2)c(=O)n1 [Decitabine] + C[C@@H](Oc1cc(-c2cnn(C3CCNCC3)c2)cnc1N)c1c(Cl)ccc(F)c1Cl [Crizotinib] (partner 1 µM)
Summary of the method: (§1)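 Medians of duplicate plates are given as relative viability. That measure is the nuclei count in treated wells divided by the count in vehicle wells. Counts were taken on 4× images of lung cancer cell lines in 1536-well plates, 5 days after pin-tool dosing the day after seeding with one drug alone or a fixed anchor-drug dose plus five library-drug doses (not always all listed) in √10 steps.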

Halofuginone + OSI-027 = compound: O=C(C[C@H]1NCCC[C@@H]1O)Cn1cnc2cc(Br)c(Cl)cc2c1=O (racemic) [Halofuginone] + COc1cccc2cc(-c3nc([C@H]4CC[C@H](C(=O)O)CC4)n4ncnc(N)c34)[nH]c12 [OSI-027] (partner 0.5 µM)
Summary of the method: as §1

Cediranib + Luminespib = compound: COc1cc2c(Oc3ccc4[nH]c(C)cc4c3F)ncnc2cc1OCCCN1CCCC1 [Cediranib] + CCNC(=O)c1noc(-c2cc(C(C)C)c(O)cc2O)c1-c1ccc(CN2CCOCC2)cc1 [Luminespib] (partner 0.01 µM)
Summary of the method: as §1

Cediranib + Trametinib = compound: COc1cc2c(Oc3ccc4[nH]c(C)cc4c3F)ncnc2cc1OCCCN1CCCC1 [Cediranib] + CC(=O)Nc1cccc(-n2c(=O)n(C3CC3)c(=O)c3c(Nc4ccc(I)cc4F)n(C)c(=O)c(C)c32)c1 [Trametinib] (partner 0.02 µM)
Summary of the method: as §1

Cell Line UMC-11 has a relative viability (Decitabine + Crizotinib; first compound 0.04 µM) of 0.483, a relative viability (Decitabine + Crizotinib; first compound 0.1265 µM) of 0.451 and a relative viability (Decitabine + Crizotinib; first compound 0.4 µM) of 0.398. It also gave a relative viability (Decitabine + Crizotinib; first compound 1.265 µM) of 0.209, a relative viability (Decitabine + Crizotinib; first compound 4 µM) of 0.168 and a relative viability (Halofuginone + OSI-027; first compound 0.001 µM) of 0.44. For the same cell line, the relative viability (Halofuginone + OSI-027; first compound 0.003162 µM) was 0.461, the relative viability (Halofuginone + OSI-027; first compound 0.01 µM) was 0.467 and the relative viability (Halofuginone + OSI-027; first compound 0.03162 µM) was 0.46. It also gave a relative viability (Halofuginone + OSI-027; first compound 0.1 µM) of 0.368, a relative viability (Cediranib + Luminespib; first compound 0.04 µM) of 1.14 and a relative viability (Cediranib + Luminespib; first compound 0.4 µM) of 1.04. For the same cell line, the relative viability (Cediranib + Luminespib; first compound 4 µM) was 0.903, the relative viability (Cediranib + Trametinib; first compound 0.04 µM) was 0.684 and the relative viability (Cediranib + Trametinib; first compound 0.1265 µM) was 0.234. For the same cell line, the relative viability (Cediranib + Trametinib; first compound 0.4 µM) was 0.586, the relative viability (Cediranib + Trametinib; first compound 1.265 µM) was 0.394 and the relative viability (Cediranib + Trametinib; first compound 4 µM) was 0.721.
